Test system: HT-22 cells
Assay: Improvement in mitochondrial membrane potential dropped by amyloid beta (JC-1 dye)
Assay type: cell-based
Conditions: compound 5 μM, amyloid beta 5 μM, 3 hours, JC-1 green:red ratio, amyloid beta damage = 0%, normal = 100%
Experimental: Meanwhile, the compound represented by Formula 1 according to the present invention is evaluated through a test to determine recovery of mitochondrial functions damaged by amyloid beta, as described in the following Test Example. After the test, the results are shown in terms of the percentages of mitochondrial function disorder caused by amyloid beta. The degree of mitochondrial function disorder caused by amyloid beta is taken as 0% and the normal condition in the absence of amyloid beta is shown as 100%.
To a transparent 96-well plate, HT-22 cells are inoculated in a number of 30,000 per well one day before the test. On the next day, JC-1 dye (Stratagen, USA) is diluted with Opti-MEM containing no phenol red to a concentration of 7.5 μM, and the resultant dilution is used to treat the cells for 1 hour and 15 minutes. The dyed cells are washed twice with phosphate buffer solution (PBS), followed by treatment with each compound to a final concentration of 5 μM per well. Then, the cells are cultured at 37° C. for 10 minutes. Particularly, for each drug, two wells are treated with amyloid beta (5 μM) and the other two wells are treated with the vehicle control (5 μM DMSO). Then, the cells are cultured at 37° C. for 3 hours. The fluorescence intensity of each well is read by using a fluorescence plate reader at 485/535 nm (green/J-monomer) and 560/595 nm (red/J-aggregate). Then, the ratio of green:red is calculated and the results are normalized by taking the change of the ratio between addition of amyloid beta and no-addition of amyloid beta in the vehicle control non-treated with drugs as 100%.

| SMILES | Improvement in Membrane Potential (%) (5 μM) |
| --- | --- |
| O=C(Cn1c(-c2ccccc2)nc2ccccc21)Nc1cc(Cl)cc(Cl)c1 [Compound 15, N-(3,5-dichlorophenyl)-2-(2-phenyl-1H-benzo[d]imidazol-1-yl)acetamide] | 69% |
| CN1CCC(NC(=O)c2ccc(Cn3c(Cc4c(Cl)cccc4Cl)nc4ccccc43)cc2)CC1 [Compound 33, 4-((2-(2,6-dichlorobenzyl)-1H-benzo[d]imidazol-1-yl)methyl)-N-(1-methylpiperidin-4-yl)benzamide] | 81% |
| O=C(NCCCN1CCCC1)c1ccc(Cn2c(Cc3c(Cl)cccc3Cl)nc3ccccc32)cc1 [Compound 35, 4-((2-(2,6-dichlorobenzyl)-1H-benzo[d]imidazol-1-yl)methyl)-N-(3-(pyrrolidin-1-yl)propyl)benzamide] | 79% |
| O=C(NCCCN1CCOCC1)c1ccc(Cn2c(Cc3c(Cl)cccc3Cl)nc3ccccc32)cc1 [Compound 39, 4-((2-(2,6-dichlorobenzyl)-1H-benzo[d]imidazol-1-yl)methyl)-N-(3-morpholinopropyl)benzamide] | 76% |
| CN1CCN(CCCNC(=O)c2ccc(Cn3c(Cc4c(Cl)cccc4Cl)nc4ccccc43)cc2)CC1 [Compound 36, 4-((2-(2,6-dichlorobenzyl)-1H-benzo[d]imidazol-1-yl)methyl)-N-(3-(4-methylpiperazin-1-yl)propyl)benzamide] | 86% |
| Cc1cccc(C(C)(C)C)c1NC(=O)Cn1c(-c2cc(Cl)ccc2Cl)nc2ccccc21 [Compound 7, N-(2-tert-butyl-6-methylphenyl)-2-(2-(2,5-dichlorophenyl)-1H-benzo[d]imidazol-1-yl)acetamide] | 41% |
| Cc1ccc(C(C)C)cc1NC(=O)Cn1c(SCc2ccc(C(=O)NCCCN(C)C)cc2)nc2ccccc21 [Compound 45, N-(3-(dimethylamino)propyl)-4-((1-(2-(5-isopropyl-2-methylphenylamino)-2-oxoethyl)-1H-benzo[d]imidazol-2-ylthio)methyl)benzamide] | 59% |
| CN(C)C(=O)c1ccc(Cn2c(Cc3c(Cl)cccc3Cl)nc3ccccc32)cc1 [Compound 47, 4-((2-(2,6-dichlorobenzyl)-1H-benzo[d]imidazol-1-yl)methyl)-N,N-dimethylbenzamide] | 73% |
| COc1ccc(OC)c(-c2nc3ccccc3n2CC(=O)Nc2cc(C(C)C)ccc2C)c1 [Compound 1, 2-(2-(2,5-dimethoxyphenyl)-1H-benzo[d]imidazol-1-yl)-N-(5-isopropyl-2-methylphenyl)acetamide] | 41% |
| Cc1ccc(C(C)C)cc1NC(=O)Cc1nc2ccccc2n1Cc1ccc(C(=O)NCCCN(C)C)cc1 [Compound 42, N-(3-(dimethylamino)propyl)-4-((2-(2-(5-isopropyl-2-methylphenylamino)2-oxoethyl)-1H-benzo[d]imidazol-1-yl)methyl)benzamide] | 68% |
| Cc1ccc(C(C)C)cc1NC(=O)Cn1c(-c2ccccc2)nc2ccccc21 [Compound 4, N-(5-isopropyl-2-methylphenyl)-(2-phenyl-1H-benzo[d]imidazol-1-yl)acetamide] | 91% |
| Cc1ccc(C(C)C)cc1NC(=O)Cn1c(Cc2ccc(Cl)c(Cl)c2)nc2ccccc21 [Compound 21, 2-(2-(3,4-dichlorobenzyl)-1H-benzo[d]imidazol-1-yl)-N-(5-isopropyl-2-methylphenyl)acetamide] | 57% |
| CCN1CCCC1CNC(=O)c1ccc(Cn2c(CC(=O)Nc3cc(C(C)C)ccc3C)nc3ccccc32)cc1 (stereo not drawn) [Compound 41, N-((1-ethylpyrrolidin-2-yl)methyl)-4-((2-(2-(5-isopropyl-2-methylphenylamino)-2-oxoethyl)-1H-benzo[d]imidazol-1-yl)methyl)benzamide] | 68% |
| O=C(Cn1c(-c2cc(Cl)ccc2Cl)nc2ccccc21)Nc1cc(Cl)cc(Cl)c1 [Compound 5, N-(3,5-dichlorophenyl)-2-(2-(2,5-dichlorophenyl)-1H-benzo[d]imidazol-1-yl)acetamide] | 91% |
| O=C(Cn1c(-c2cc(Cl)ccc2Cl)nc2cc(Cl)ccc21)Nc1cc(Cl)cc(Cl)c1 [Compound 27, 2-(5-chloro-2-(2,5-dichlorophenyl)-1H-benzo[d]imidazol-1-yl)-N-(3,5-dichlorophenyl)acetamide] | 77% |
| CC(C)(C)c1cc(NC(=O)Cn2c(Cc3ccc(Cl)c(Cl)c3)nc3ccccc32)cc(C(C)(C)C)c1 [Compound 24, N-(3,5-di-tert-butylphenyl)-2-(2-(3,4-dichlorobenzyl)-1H-benzo[d]imidazol-1-yl)acetamide] | 42% |
| Cc1ccc(C(C)C)cc1NC(=O)Cn1c(-c2ccccc2)nc2ccccc21 [Compound 14, N-(5-isopropyl-2-methylphenyl)-2-(2-phenyl-1H-benzo[d]imidazol-1-yl)acetamide] | 73% |
| COc1ccc(OC)c(Cc2nc3ccccc3n2CC(=O)Nc2cc(C(C)C)ccc2C)c1 [Compound 19, 2-(2-(2,5-dimethoxybenzyl)-1H-benzo[d]imidazol-1-yl)-N-(5-isopropyl-2-methylphenyl)acetamide] | 81% |
| CC(C)(C)c1cc(NC(=O)Cn2c(-c3ccccc3)nc3ccccc32)cc(C(C)(C)C)c1 [Compound 13, N-(3,5-di-tert-butylphenyl)-2-(2-phenyl-1H-benzo[d]imidazol-1-yl)acetamide] | 86% |
| Cc1ccc(C(C)C)cc1NC(=O)Cc1nc2ccccc2n1Cc1ccc(C(=O)NCCCN2CCCCC2)cc1 [Compound 44] | 80% |
| Cc1ccc(C(C)C)cc1NC(=O)Cn1c(-c2cc(Cl)ccc2Cl)nc2cc(Cl)ccc21 [Compound 26, 2-(5-chloro-2-(2,5-dichlorophenyl)-1H-benzo[d]imidazol-1-yl)-N-(5-isopropyl-2-methylphenyl)acetamide] | 60% |
| Cc1cccc(C(C)(C)C)c1NC(=O)Cn1c(Cc2ccccc2)nc2ccccc21 [Compound 12, 2-(2-benzyl-1H-benzo[d]imidazol-1-yl)-N-(2-tert-butyl-6-methylphenyl)acetamide] | 38% |
| O=C(NCCN1CCCCC1)c1ccc(Cn2c(Cc3c(Cl)cccc3Cl)nc3ccccc32)cc1 [Compound 38, 4-((2-(2,6-dichlorobenzyl)-1H-benzo[d]imidazol-1-yl)methyl)-N-(3-(piperidin-1-yl)ethyl)benzamide] | 89% |
| Cc1ccc(C(C)C)cc1NC(=O)Cn1c(SCc2ccc(C(=O)NCCCN3CCCCC3)cc2)nc2ccccc21 [Compound 46] | 67% |

Source: patent US20140114067A1, “BENZIMIDAZOLE DERIVATIVES AS MITOCHONDRIAL FUNCTION MODULATORS” (KOREA INSTITUTE OF SCIENCE AND TECHNOLOGY, priority 2012, published 2014)
